Test results: patent US20240254124A1, “AZAINDOLE ROCK INHIBITORS” (priority 2022, published 2024)

Key:
hERG = hERG (Homo sapiens (Human), UniProt Q12809); assay: biochemical
ROCK2 = ROCK2 (Homo sapiens (Human), UniProt O75116); assay: ROCK2 inhibition assay (HotSpot, 33P-ATP); type: biochemical
[1] = 24 hour mouse pharmacokinetics; type: in vivo, B6SJLF1/J mice
Method: Groups 2, 3, 4, 6, and 8: Test article was dissolved in a minimal amount of DMSO (Groups 2, 4, 6, 8: 40-50 μL, Group 3: 100 μL), 0.5% methylcellulose was added to final volume, then solution was sonicated for 2 minutes.
Group 7: Test article was dissolved in 100 μL DMSO, saline was added to final volume, then solution was sonicated for 2 minutes.
Groups 1, 5: The test article was administered as a single dose via slow bolus intravenous administration into a lateral tail vein, with a 27G needle.
Groups 2, 4, 6, 7, 8: The test article was administered as a single dose directly to the stomach by oral gavage.
Group 3: The test article was administered as a single dose in two parts with an approximate 1-2-minute rest between due to volume administered.
Approximately 150 μL of blood was collected by tail nick for the first time point and then the maximal volume by cardiac stick for the second, terminal time point in each mouse. The plasma was spun and separated within 30 minutes of collection and stored frozen at −20° C. until shipment.
Prior to the terminal blood collection, CSF was collected. […] The resulting data is shown in Tables 13, 14, 15, 16 and 17 below.

[2] = 24 hour rat pharmacokinetics; conditions: male
ROCK1 = ROCK1 (Homo sapiens (Human), UniProt Q13464); assay: ROCK1 inhibition assay (HotSpot, 33P-ATP); type: biochemical; conditions: Table 2A; 10 μM ATP
Sequence of ROCK1 (Q13464 whole entry): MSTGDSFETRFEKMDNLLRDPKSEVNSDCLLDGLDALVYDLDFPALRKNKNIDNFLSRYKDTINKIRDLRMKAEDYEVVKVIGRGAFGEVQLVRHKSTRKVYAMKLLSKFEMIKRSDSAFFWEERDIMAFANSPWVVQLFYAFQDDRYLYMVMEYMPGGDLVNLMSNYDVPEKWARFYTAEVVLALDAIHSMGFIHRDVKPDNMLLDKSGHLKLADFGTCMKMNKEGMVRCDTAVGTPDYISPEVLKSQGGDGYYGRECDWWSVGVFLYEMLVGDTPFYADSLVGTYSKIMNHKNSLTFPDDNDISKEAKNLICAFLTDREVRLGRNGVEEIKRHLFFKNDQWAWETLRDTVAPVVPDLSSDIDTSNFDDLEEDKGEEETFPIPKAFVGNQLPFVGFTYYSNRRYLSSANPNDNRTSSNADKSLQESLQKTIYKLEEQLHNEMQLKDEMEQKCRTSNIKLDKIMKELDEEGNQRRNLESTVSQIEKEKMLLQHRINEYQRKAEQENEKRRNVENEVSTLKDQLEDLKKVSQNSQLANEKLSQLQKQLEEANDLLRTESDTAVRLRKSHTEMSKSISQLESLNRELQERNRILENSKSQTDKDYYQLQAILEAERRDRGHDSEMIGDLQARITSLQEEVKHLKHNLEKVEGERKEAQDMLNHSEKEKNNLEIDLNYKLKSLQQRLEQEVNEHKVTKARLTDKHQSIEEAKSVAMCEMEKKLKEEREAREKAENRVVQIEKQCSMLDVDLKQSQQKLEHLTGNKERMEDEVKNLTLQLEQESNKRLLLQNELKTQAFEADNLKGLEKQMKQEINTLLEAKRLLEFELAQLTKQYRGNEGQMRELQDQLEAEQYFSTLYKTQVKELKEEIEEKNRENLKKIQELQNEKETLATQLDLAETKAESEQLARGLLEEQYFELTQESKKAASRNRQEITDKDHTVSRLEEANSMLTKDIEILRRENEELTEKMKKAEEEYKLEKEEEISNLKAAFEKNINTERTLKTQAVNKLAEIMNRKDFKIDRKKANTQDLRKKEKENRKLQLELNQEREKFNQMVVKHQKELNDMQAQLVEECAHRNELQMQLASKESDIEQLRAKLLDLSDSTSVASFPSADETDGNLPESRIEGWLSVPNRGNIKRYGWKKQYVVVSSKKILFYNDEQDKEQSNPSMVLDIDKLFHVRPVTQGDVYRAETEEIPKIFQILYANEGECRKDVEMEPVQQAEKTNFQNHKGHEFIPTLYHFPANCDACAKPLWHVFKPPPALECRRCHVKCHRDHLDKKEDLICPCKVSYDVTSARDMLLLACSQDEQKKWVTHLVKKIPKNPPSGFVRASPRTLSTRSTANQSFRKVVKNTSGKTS

PRKX = PRKX (Homo sapiens (Human), UniProt P51817); assay: PRKX inhibition assay (HotSpot, 33P-ATP); type: biochemical; conditions: Table 2B; 10 μM ATP; Compound 1 is geometric mean of multiple experiments
Sequence of PRKX (P51817 whole entry): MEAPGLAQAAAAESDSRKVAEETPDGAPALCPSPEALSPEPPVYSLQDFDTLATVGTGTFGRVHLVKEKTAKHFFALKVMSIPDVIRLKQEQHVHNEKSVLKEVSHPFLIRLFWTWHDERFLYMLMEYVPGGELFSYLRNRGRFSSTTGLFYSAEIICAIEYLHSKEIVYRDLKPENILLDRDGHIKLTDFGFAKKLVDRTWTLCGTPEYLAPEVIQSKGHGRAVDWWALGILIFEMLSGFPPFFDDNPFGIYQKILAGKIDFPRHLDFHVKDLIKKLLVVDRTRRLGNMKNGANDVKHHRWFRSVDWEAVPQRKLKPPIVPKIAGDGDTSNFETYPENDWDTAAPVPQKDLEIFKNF
Method: (§1) Compounds as a powder were dissolved in dimethyl sulfoxide to make a 10 mM stock. […] The HotSpot kit employing ^33P-ATP was used with reactions conducted at 10 μM ATP for each tested enzyme. The percent activity relative to DMSO controls for each concentration was then fitted to a curve using GraphPad Prism to determine the IC50. […] Each experiment was run in the same lab with this procedure.

PKA = PKA (Homo sapiens (Human), UniProt P17612); assay: PKA inhibition assay (HotSpot, 33P-ATP); type: biochemical; conditions: Table 2B; 10 μM ATP; Compound 1 is geometric mean of multiple experiments
Method: as §1

Sequence of ROCK2 (O75116 whole entry): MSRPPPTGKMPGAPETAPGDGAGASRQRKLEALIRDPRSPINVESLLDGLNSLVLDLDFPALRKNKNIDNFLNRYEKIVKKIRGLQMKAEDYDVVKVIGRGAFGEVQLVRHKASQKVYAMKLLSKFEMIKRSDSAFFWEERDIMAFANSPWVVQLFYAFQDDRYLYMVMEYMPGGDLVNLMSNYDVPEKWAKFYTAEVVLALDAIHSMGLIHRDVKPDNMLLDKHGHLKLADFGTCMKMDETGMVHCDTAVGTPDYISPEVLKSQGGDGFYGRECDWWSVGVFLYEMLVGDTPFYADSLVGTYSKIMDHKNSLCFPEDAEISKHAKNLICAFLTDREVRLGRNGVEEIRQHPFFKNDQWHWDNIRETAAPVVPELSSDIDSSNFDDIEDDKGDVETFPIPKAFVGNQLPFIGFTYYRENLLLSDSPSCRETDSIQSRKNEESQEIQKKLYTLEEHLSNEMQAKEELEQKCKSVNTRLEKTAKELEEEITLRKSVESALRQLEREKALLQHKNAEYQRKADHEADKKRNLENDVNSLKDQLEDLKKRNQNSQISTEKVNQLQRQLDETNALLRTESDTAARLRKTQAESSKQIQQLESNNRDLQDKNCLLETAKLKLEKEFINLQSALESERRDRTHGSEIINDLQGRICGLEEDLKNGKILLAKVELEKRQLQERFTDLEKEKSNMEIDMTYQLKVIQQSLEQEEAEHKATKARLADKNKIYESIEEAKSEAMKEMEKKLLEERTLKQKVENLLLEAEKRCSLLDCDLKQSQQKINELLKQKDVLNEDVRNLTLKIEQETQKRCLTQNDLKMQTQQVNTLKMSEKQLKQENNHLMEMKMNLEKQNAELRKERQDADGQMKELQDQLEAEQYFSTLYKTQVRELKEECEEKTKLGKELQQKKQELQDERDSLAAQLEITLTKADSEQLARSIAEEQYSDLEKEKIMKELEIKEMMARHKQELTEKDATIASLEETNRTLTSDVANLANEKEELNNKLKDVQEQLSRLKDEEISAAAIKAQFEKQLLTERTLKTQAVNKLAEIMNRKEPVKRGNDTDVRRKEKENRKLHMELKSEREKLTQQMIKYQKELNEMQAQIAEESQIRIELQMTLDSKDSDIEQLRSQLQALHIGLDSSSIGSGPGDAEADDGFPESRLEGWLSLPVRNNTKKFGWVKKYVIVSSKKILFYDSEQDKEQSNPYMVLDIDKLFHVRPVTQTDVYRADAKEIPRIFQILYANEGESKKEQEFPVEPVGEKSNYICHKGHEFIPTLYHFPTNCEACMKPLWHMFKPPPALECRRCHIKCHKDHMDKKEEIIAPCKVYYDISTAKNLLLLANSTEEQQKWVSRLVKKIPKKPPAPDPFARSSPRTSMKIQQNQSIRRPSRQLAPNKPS
Sequence of hERG (Q12809 whole entry): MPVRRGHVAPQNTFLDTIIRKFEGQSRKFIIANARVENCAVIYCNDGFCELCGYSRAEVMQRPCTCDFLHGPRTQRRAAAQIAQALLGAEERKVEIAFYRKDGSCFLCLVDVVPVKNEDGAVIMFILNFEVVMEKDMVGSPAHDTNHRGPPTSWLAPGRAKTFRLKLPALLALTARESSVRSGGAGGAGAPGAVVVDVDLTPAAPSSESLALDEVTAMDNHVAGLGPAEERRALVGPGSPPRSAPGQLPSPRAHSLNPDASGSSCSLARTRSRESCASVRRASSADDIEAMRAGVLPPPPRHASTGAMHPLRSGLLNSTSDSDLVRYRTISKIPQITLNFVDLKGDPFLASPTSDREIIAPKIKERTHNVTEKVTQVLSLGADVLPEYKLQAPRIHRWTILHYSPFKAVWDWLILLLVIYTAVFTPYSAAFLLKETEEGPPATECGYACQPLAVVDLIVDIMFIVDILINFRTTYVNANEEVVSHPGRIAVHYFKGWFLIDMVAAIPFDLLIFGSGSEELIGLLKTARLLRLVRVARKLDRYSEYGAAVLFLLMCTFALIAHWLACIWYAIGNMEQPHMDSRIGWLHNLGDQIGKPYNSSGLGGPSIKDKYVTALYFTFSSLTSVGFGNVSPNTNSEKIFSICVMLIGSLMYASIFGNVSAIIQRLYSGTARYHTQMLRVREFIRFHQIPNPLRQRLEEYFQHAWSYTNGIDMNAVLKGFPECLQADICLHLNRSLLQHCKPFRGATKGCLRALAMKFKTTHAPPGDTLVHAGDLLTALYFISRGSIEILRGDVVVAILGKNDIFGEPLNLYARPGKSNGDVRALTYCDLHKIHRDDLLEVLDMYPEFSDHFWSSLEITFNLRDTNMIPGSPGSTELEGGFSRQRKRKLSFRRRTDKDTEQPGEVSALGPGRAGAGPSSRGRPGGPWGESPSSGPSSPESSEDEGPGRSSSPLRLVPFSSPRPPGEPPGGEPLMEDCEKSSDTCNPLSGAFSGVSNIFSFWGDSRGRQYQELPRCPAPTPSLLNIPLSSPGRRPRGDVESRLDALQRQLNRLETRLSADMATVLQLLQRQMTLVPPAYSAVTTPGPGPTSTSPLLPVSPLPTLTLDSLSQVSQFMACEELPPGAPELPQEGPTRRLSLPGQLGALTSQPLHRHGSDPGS

| Compound | Kd (hERG) | concentration required to inhibit half of ROCK2's activity, lower than Fasudil (ROCK2; head-to-head against Fasudil) | AUC0-t/D ([1]; IV 3 mg/kg, male) | AUC0-t/D ([1]; PO 10 mg/kg, female) | AUC0-t/D ([1]; PO 10 mg/kg, male) | AUC0-t/D ([1]; PO 100 mg/kg, male) | Ratio to 10 mg/kg Dose Level, AUC0-∞ ([1]; PO 100 mg/kg, male) | AUC0-t/D ([2]; IV 3 mg/kg) | AUC0-t/D ([2]; PO 10 mg/kg) | IC50 (ROCK1) | IC50 (PRKX) | IC50 (PKA) | IC50 (ROCK2; Table 2A, 10 μM ATP) |
| --- | --- | --- | --- | --- | --- | --- | --- | --- | --- | --- | --- | --- | --- |
| Cn1c(C(=O)NCc2ccccc2F)cc2ccc(-c3cn[nH]c3)nc21 [Compound 1, N-(2-fluorobenzyl)-1-methyl-6-(1H-pyrazol-4-yl)-1H-pyrrolo[2,3-b]pyridine-2-carboxamide] | > 100 µM | more than 50 fold | 3380 (h * ng/ml)/(mg/kg) | 567 (h * ng/ml)/(mg/kg) | 535 (h * ng/ml)/(mg/kg) | 441 (h * ng/ml)/(mg/kg) | 8.00 | 1541 (h * ng/ml)/(mg/kg) | 261 (h * ng/ml)/(mg/kg) |  |  |  |  |
| Cc1[nH]ncc1-c1ccc2cc(C(=O)NCc3c(Cl)cccc3C3(O)CC3)[nH]c2n1 [Compound 6, N-(2-chloro-6-(1-hydroxycyclopropyl)benzyl)-6-(5-methyl-1H-pyrazol-4-yl)-1H-pyrrolo[2,3-b]pyridine-2-carboxamide] |  |  |  |  |  |  |  |  |  | 0.0356 µM | 0.0323 µM | 0.103 µM | 0.0101 µM |
